Assay results reported in patent US20240391895A1, “PYRIDAZINE-CONTAINING COMPOUND AND MEDICINAL USE THEREOF” (Tuojie Biotech (Shanghai) Co., Ltd., priority 2020, published 2024).

Each compound was assayed against T1, NLRP3 inflammasome (Homo sapiens, UniProt Q96P20) (assay: Inhibitory activity against NLRP3 inflammasome in human monocytes (IL-1b ELISA)). Details: human monocytes from PBMCs; compound 0.5 h, LPS 100 ng/mL 3.5 h, ATP 5 mM 45 min; IL-1b in supernatant by ELISA; (n = 2) cells are means of n tests; read-out: IL-1β inhibition (EC50)/nM.
T1 construct: Monocytes were then isolated from the PBMCs using a human pan-monocyte isolation kit; endogenous in cells; host or cells: primary human monocytes isolated from PBMCs of human blood
T1 sequence (Q96P20 whole entry): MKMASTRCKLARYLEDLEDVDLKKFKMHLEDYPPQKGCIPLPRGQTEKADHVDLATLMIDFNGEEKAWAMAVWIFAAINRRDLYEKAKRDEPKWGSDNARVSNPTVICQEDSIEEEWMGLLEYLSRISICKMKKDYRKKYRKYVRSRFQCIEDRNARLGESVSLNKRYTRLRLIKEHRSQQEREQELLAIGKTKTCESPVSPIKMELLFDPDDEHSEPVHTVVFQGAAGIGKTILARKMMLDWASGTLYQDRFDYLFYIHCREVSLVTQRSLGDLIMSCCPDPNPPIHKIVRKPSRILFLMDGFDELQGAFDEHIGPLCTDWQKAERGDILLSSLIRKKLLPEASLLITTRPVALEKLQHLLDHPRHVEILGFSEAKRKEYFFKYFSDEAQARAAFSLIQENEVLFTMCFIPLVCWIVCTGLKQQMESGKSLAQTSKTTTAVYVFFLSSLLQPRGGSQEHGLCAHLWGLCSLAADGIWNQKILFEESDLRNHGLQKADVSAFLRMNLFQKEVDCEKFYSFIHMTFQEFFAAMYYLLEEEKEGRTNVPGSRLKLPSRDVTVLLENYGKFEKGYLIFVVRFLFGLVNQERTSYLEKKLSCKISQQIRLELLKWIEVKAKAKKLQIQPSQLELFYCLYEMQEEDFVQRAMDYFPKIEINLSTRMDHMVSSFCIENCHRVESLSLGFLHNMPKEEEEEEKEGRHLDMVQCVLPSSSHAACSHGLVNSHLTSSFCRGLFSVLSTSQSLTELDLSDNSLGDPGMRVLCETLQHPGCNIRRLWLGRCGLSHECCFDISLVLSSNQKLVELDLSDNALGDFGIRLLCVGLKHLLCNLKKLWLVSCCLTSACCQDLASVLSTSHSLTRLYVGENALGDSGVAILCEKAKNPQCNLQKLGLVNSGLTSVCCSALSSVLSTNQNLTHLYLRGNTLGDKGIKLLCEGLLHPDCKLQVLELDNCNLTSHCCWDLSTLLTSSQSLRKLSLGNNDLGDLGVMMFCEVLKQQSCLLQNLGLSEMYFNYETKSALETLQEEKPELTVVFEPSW
Assay type: cell-based
Protocol: Assays for Inhibitory Activity Against NLRP3 Inflammasome in Human Monocytes
Day 1: PBMCs were separated from human blood by density gradient centrifugation and washed twice with PBS containing 2% FBS (centrifuged at 300 g for 8 min). Monocytes were then isolated from the PBMCs using a human pan-monocyte isolation kit and an LS column. The cells were stained with CD14-FITC at 4° C. for 30 min, and FACS was run on BD FACS Verse to analyze the purity of the pan-monocytes. The cells were counted, and the cell density was adjusted to 2.5×10^5 cells/mL. The cells were seeded into a 96-well plate at 2.5×10^4 monocytes/[…] suspension/well. The plate was incubated overnight at 37° C. in 5% CO2.
Day 2: Test compounds were pre-titrated so that all titration points, including the DMSO control well, contained 0.1% DMSO. […] At the end of the 3.5 hours' incubation, the cells were stimulated (by adding […] of 40 mM ATP (the final concentration would be 5 mM) to treat the cells for 45 min). […] of supernatant was transferred to a new plate and stored at […]
Day 3: The supernatant solution was 20-fold diluted for human monocyte IL-1b ELISA according to the manufacturer's instructions.
Days 3-4: ELISA experiment • 1) Day 3: A capture antibody (diluted with coating buffer) was added to the plate at […]. The plate was sealed and incubated overnight at 4° C. • 2) Day 4: The liquids in the wells were pipetted off, and the plate was washed 3 times with wash buffer, 300 μL/≥each time. After the last wash, the plate was inverted and blotted dry with absorbent paper to remove any residual buffer.
3) A test dilution was added to the plate at ≥200 μL/well. The plate was incubated at room temperature for 1 h. • 4) The plate was blotted dry/washed as in step 2. • 5) Standard and sample dilutions were prepared with the test dilution. • 6) Each standard, sample and control was added to a corresponding well at […]. The plate was sealed and incubated at room temperature for 2 h. • 7) The plate was blotted dry/washed as in step 2, except that it was washed 5 times. • 8) The assay antibody was diluted with the test dilution and added to wells at […]/well. • 9) The plate was sealed and incubated at room temperature for 1 h. • 10) The plate was blotted dry/washed as in step 2, except that it was washed 5 times. • 11) The enzyme reagent was diluted with the test dilution and added to wells at […]/well. The plate was sealed and incubated at room temperature for 30 min. • 12) The plate was blotted dry/washed, and the step of soaking for 30 s-1 min was used. The plate was washed 7 times in total. • 13) A substrate solution was added at […]/well. The plate (without plate sealant) was incubated at room temperature in the dark for 30 min. • 14) A stop solution was added at […]. • 15) The absorbance at 450 nm was read using the instrument Envision within 30 min of stopping the reaction. If a wavelength correction was available, the absorbance at 570 nm would be subtracted from the absorbance at 450 nm.

| SMILES | EC50 |
| --- | --- |
| Cc1cc(N[C@@H]2CCCN(CCO)C2)nnc1-c1ccc(C2CC2)cc1O (racemic) [Compound 36, rac-(R)-5-Cyclopropyl-2-(6-((1-(2-hydroxyethyl)piperidin-3-yl)amino)-4-methylpyridazin-3-yl)phenol] | 127 nM |
| Cc1cc(N[C@@H]2CCCN(C)C2)nnc1-c1cc2ccccc2cc1O [Compound 5, (R)-3-(4-Methyl-6-((1-methylpiperidin-3-yl)amino)pyridazin-3-yl)naphthalen-2-ol] | 41.8 nM |
| Cc1cc(N[C@@H]2CCCN(C)C2)nnc1-c1cc2c(cc1O)CCC2 [Compound 6, (R)-6-(4-Methyl-6-((1-methylpiperidin-3-yl)amino)pyridazin-3-yl)-2,3-dihydro-1H-inden-5-ol] | 18.7 nM |
| Cc1cc(N[C@@H]2CCCN(C)C2)nnc1-c1c(O)ccc2c1CCC2 [Compound 7] | 22.6 nM |
| Cc1cc(N[C@@H]2CCCN(C)C2)nnc1-c1cc2ccccc2cc1O [Compound 9, (R)-3-(4-Methyl-6-((1-methylpiperidin-3-yl)amino)pyridazin-3-yl)naphthalen-2-ol] | 41.8 nM |
| CN1CCC[C@@H](Nc2ccc(-c3c(O)ccc4ccccc34)nn2)C1 [Compound 10, (R)-1-(6-((1-Methylpiperidin-3-yl)amino)pyridazin-3-yl)naphthalen-2-ol] | 48.2 nM |
| Cc1cc(N[C@@H]2CCCN(C)C2)nnc1-c1ccncc1O [Compound 13, (R)-4-(4-Methyl-6-((1-methylpiperidin-3-yl)amino)pyridazin-3-yl)pyridin-3-ol] | 129 nM |
| Cc1cc(N[C@@H]2CCCN(C)C2)nnc1-c1c(O)ccc2c1CCC2 [Compound 17] | 14.4 nM |
| C[C@]1(O)C[C@@H](Nc2nnc(-c3ccc(C(F)(F)F)cc3O)c3ncccc23)C1 [Compound 22] | 35.5 nM |
| Cc1cc(N[C@H]2C[C@@](C)(O)C2)nnc1-c1ccc(C2CC2)cc1O [Compound 28] | 17.4 nM |
| Cc1c(N[C@H]2C[C@@](C)(O)C2)nnc(-c2ccc(C3CC3)cc2O)c1C [Compound 29] | 37.2 nM |
| C[C@]1(O)C[C@@H](Nc2nnc(-c3ccc(C4CC4)cc3O)c3ccccc23)C1 [Compound 30] | 13.4 nM |
| C[C@]1(O)C[C@@H](Nc2nnc(-c3c(O)cc(C(F)(F)F)cc3F)c3ccncc23)C1 [Compound 33] | 22 nM |
| C[C@]1(O)C[C@@H](Nc2nnc(-c3c(O)cc(C(F)(F)F)cc3F)c3cnccc23)C1 [Compound 34] | 27 nM |
| Cc1cc(N[C@H]2C[C@@](C)(O)C2)nnc1-c1cc(F)c2c(c1O)CCC2 [Compound 37] | 60 nM |
| C[C@]1(O)C[C@@H](Nc2nnc(-c3ccc(C4CC4)cc3O)c3ccncc23)C1 [Compound 41] | 27 nM |
| C[C@]1(O)C[C@@H](Nc2nnc(-c3ccc(C(F)(F)F)cc3O)c3c2COCC3)C1 [Compound 42] | 20 nM |
| C[C@]1(O)C[C@@H](Nc2nnc(-c3ccc(C(F)(F)F)cc3O)c3c2CCOC3)C1 [Compound 43] | 20 nM |
| C[C@]1(O)C[C@@H](Nc2nnc(-c3c(O)cc(C(F)(F)F)cc3F)c3ccccc23)C1 [Compound 44] | 24 nM |
| Cc1cc(C(F)(F)F)cc(O)c1-c1nnc(N[C@@H]2CCCN(C)C2)c2c1COC2 [Compound 47] | 32.2 nM |

The next compounds have a lower EC50 than those just listed; values first:

| EC50 | SMILES |
| --- | --- |
| 2.47 nM | Cc1cc(N[C@@H]2CCCN(C)C2)nnc1-c1ccc(SC(F)(F)F)cc1O (racemic) [Compound 11, rac-(R2-(4-Methyl-6-((1-methylpiperidin-3-yl)amino)pyridazin-3-yl)-5-( (trifluoromethyl)thio)phenol] |
| 4.99 nM | OCCN1CCC[C@@H](Nc2nnc(-c3ccc(C(F)(F)F)cc3O)c3c2CCCC3)C1 (racemic) [Compound 19, rac-(R)-2-(4-(1-(2-Hydroxyethyl)piperidin-3-yl)amino)-5,6,7,8-tetrahydrophthalazin-1-yl)-5-(trifluoromethyl)phenol] |
| 1.23 nM | CN1CCC[C@@H](Nc2nnc(-c3c(O)cccc3F)c3c2CCC3)C1 (racemic) [Compound 20, rac-3-Fluoro-2-(4-((R)-1-methylpiperidin-3-yl)amino)-6,7-dihydro-5H-cyclopenta[d]pyridazin-1-yl)phenol] |
| 0.71 nM | OCCN1CCC[C@@H](Nc2nnc(-c3ccc(C(F)(F)F)cc3O)c3c2COC3)C1 (racemic) [Compound 32, rac-(R)-2-(4-(1-(2-Hydroxyethyl)piperidin-3-yl)amino)-5,7-dihydrofuro[3,4-d]pyridazin-1-yl)-5-(trifluoromethyl)phenol] |
| 1.91 nM | Cc1cc(N[C@@H]2CCCN(C)C2)nnc1-c1ccc2c(c1O)CCC2 [Compound 4, (R)-5-(4-Methyl-6-((1-methylpiperidin-3-yl)amino)pyridazin-3-yl)-2,3-dihydro-1H-inden-4-ol] |
| 4.31 nM | Cc1cc(N[C@@H]2CCCN(C)C2)nnc1-c1ccc(C(F)(F)F)cc1C(F)F [Compound 8, (R)-6-(2-(Difluoromethyl)-4-(trifluoromethyl)phenyl)-5-methyl-N-(1-methylpiperidin-3-yl)pyridazin-3-amine] |
| 2.38 nM | Cc1cc(N[C@H]2C[C@@](C)(O)C2)nnc1-c1ccc2c(c1O)CCC2 [Compound 14] |
| 4.25 nM | C[C@]1(O)C[C@@H](Nc2nnc(-c3ccc(C(F)(F)F)cc3O)c3ccccc23)C1 [Compound 15] |
| 4.62 nM | Cc1c(N[C@H]2C[C@@](C)(O)C2)nnc(-c2ccc3c(c2O)CCC3)c1C [Compound 21] |
| 2.51 nM | C[C@]1(O)C[C@@H](Nc2nnc(-c3ccc(C(F)(F)F)cc3O)c3cccnc23)C1 [Compound 23] |
| 0.68 nM | C[C@]1(O)C[C@@H](Nc2nnc(-c3ccc(C(F)(F)F)cc3O)c3ccncc23)C1 [Compound 24] |
| 12.8 nM | C[C@]1(O)C[C@@H](Nc2nnc(-c3ccc(C(F)(F)F)cc3O)c3cnccc23)C1 [Compound 25] |
| 4.75 nM | Cc1cc(N[C@@H]2CCCN(C)C2)nnc1-c1ccc2c(c1O)CCCC2 [Compound 27] |
| 1.08 nM | C[C@]1(O)C[C@@H](Nc2nnc(-c3ccc4c(c3O)CCC4)c3ccccc23)C1 [Compound 31] |
| 1.4 nM | CN1CCC[C@@H](Nc2nnc(-c3c(O)cc(C(F)(F)F)cc3F)c3c2COC3)C1 [Compound 35] |
| 3 nM | C[C@]1(O)C[C@@H](Nc2nnc(-c3ccc4c(c3O)CCC4)c3cccnc23)C1 [Compound 38] |
| 1 nM | C[C@]1(O)C[C@@H](Nc2nnc(-c3ccc4c(c3O)CCC4)c3ccncc23)C1 [Compound 39] |
| 1.1 nM | C[C@]1(O)C[C@@H](Nc2nnc(-c3ccc4c(c3O)CCC4)c3cnccc23)C1 [Compound 40] |
| 4.9 nM | Cc1cc(C(F)(F)F)cc(O)c1-c1nnc(N[C@H]2C[C@@](C)(O)C2)c2cnccc12 [Compound 45] |
| 10.1 nM | Cc1cc(C(F)(F)F)cc(O)c1-c1nnc(N[C@H]2C[C@@](C)(O)C2)c2ccccc12 [Compound 46] |
